From US7369696B2, “Classification of cells into subpopulations using cell classifying data” (GE Healthcare UK Limited, priority 2003, dated 2008)

System: U2OS cells (ATCC HTB-96) transfected with cyclin B1 promoter/D-box/CRS-GFP cell cycle reporter construct
Assay: Effect of cell cycle blocking agents on GFP fluorescence from cell cycle phase marker, transiently transfected cells
Assay type: cell-based
Details: U2OS cells 24 hours after transfection, exposed to blocker for a further 24 hours; confocal scanning imager with automated image analysis; control = culture media alone
Method: U2OS cells (ATCC HTB-96) were cultured in wells of a 96 well microtitre plate. Cells were transfected with a cell cycle reporter construct prepared according to Example 1, comprising a cyclin B1 promoter operably linked to sequences encoding the cyclin B1 D-box, the cyclin B1 CRS, and GFP in a pCORON4004 vector (Amersham Biosciences) using Fugene 6 (Roche) as the transfection agent.
Following 24 hours of culture, cells were exposed to the specific cell cycle blockers mimosine (blocks at G1/S phase boundary) or demecolcine (blocks in M phase). Control cells were exposed to culture media alone.
Cells were incubated for a further 24 hours and then analysed for nuclear GFP expression using a confocal scanning imager with automated image analysis (IN Cell Analysis System, Amersham Biosciences).

Row | Compound | nuclear GFP expression (fluorescence) compared to control cells
1 | NC(Cn1ccc(=O)c(O)c1)C(=O)O (centres unmarked) [mimosine] | decreased fluorescence compared to control cells
2 | CN[C@H]1CCc2cc(OC)c(OC)c(OC)c2-c2ccc(OC)c(=O)cc21 [demecolcine] | increased fluorescence compared to control cells
